Experimental data: publication PMC2933744 (Biochemistry, 2008)

What was measured:
hPRMT1 [1] = target: T1, hPRMT1 (Homo sapiens, UniProt Q99873); test: Dead-end analogue inhibition, AcH4-21 and SAM as substrates; format: biochemical; conditions: pH 8.0, 37°C
hPRMT1 [2] = target: T1, hPRMT1; test: Initial velocity studies; format: biochemical; conditions: for K(SAM) (Michaelis constant): pH 8.0, 37°C, fit to eq 2

T1 sequence (Q99873 whole entry): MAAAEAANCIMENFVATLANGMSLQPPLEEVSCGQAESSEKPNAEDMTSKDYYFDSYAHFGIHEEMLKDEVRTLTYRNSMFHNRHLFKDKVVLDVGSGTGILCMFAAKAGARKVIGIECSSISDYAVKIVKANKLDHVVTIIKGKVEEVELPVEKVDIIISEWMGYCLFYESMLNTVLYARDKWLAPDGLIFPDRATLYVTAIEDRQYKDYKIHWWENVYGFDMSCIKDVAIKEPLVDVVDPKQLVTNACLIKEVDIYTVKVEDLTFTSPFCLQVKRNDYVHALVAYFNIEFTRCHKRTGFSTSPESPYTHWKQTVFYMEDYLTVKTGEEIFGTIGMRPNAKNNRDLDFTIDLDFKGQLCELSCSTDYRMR

Compound | Kii (intercept Ki) (hPRMT1 [1]; AcH4-21 varied, fixed [SAM] = 15 µM, mixed fit eq 5) | Inhibition pattern (hPRMT1 [1]; SAM varied, fixed AcH4-21 10 µM, 212 nM hPRMT1, at least duplicate) | K(SAM) (Michaelis constant) (hPRMT1 [2]; AcH4-21 varied, fixed SAM 1, 2.5, 7.5 µM) | Initial velocity pattern (double reciprocal plots) (hPRMT1 [2]; SAM and peptide varied at various fixed concentrations of the other substrate) | K(SAM) (Michaelis constant) (hPRMT1 [2]; SAM varied, fixed AcH4-21 2.5, 5, 25 µM)
Nc1ncnc2c1ncn2[C@@H]1O[C@H](C[C@@H](N)CC[C@H](N)C(=O)O)[C@@H](O)[C@H]1O [Sinefungin] | 0.47 ± 0.19 µM | Competitive | – | – | –
C[S+](CC[C@H](N)C(=O)[O-])C[C@H]1O[C@@H](n2cnc3c(N)ncnc32)[C@H](O)[C@@H]1O (stereo partly drawn) [SAM, S-adenosyl-L-methionine] | – | – | 8.35 ± 2.11 | intersect in the second quadrant | 21.1 ± 4.0
